Measured values: a melting point compilation (Tetko et al.; mined from patent text by program, amines drawn as free bases though some values may be those of a salt)

melting point [°C]	Compound
129 to 131	Cc1ccc(S(=O)(=O)n2ccc3cc(C#N)ccc32)cc1
96 to 98	CCNC(=O)c1cc(Br)sc1[Si](C)(C)C
> 300	Cc1c2ccccc2cc2[nH]c(S)nc12
166 to 168	CN1CCN(CCCn2c(NC(=O)c3ccc(Cl)c(Cl)c3)nc3ccccc32)CC1
209 to 210	O=C(Cc1ccccc1C(=O)O)Nc1cccc(/C=C/c2nc(C3CCCC3)cs2)c1
242 to 245	N=C(N)NCCCCC(=O)Nc1ccc(OCc2ccccc2)c(C(=O)NCCC(=O)O)c1
79 to 84	O=C1CCCCc2ccccc21
70 to 71	Cc1sc(-c2ccccc2)nc1COc1ccc(CO)cn1
97.2	CC(C)(C)OC(=O)N1CCO[C@@H](c2ccc(Br)cc2)C1
186	CC(=O)NC[C@H]1CN(c2ccc(I)c(F)c2)C(=O)O1
192 to 193	NC1=NS(=O)N=C1NCCCN(Cc1ccccn1)c1ccccn1 (stereo not drawn)
198 to 200	Cc1oc(-c2ccccc2)nc1CCC(=O)c1ccc(CC2OC(=O)NC2=O)cc1 (stereo not drawn)
192 to 193	O=C(N[C@H](Cc1cccc(OCC(F)(F)F)c1)[C@@H](O)c1ccc(F)cc1)c1ccc(F)c2ccccc12 (racemic)
107 to 111	O=C(O)CN1C(=O)C(NC(=O)[C@@H](S)Cc2ccccc2)CCC2CC=CC=C21 (stereo partly drawn)
130 to 132	O=Cc1cc(Cc2cccnc2)ccc1O
114 to 115	CCN(COC)c1cc(-c2ccnc(Nc3cccc(Cl)c3)n2)ccn1
99 to 101	CC(C)(C)NC(=O)Nc1ccc([N+](=O)[O-])cc1O
69 to 70	COc1ccc(S(=O)(=O)N(COCC[Si](C)(C)C)c2ccccc2I)cc1
232 to 235	CC(C)NCC(O)COc1ccc2cn[nH]c(=O)c2c1 (stereo not drawn)
244 to 247	CC(c1oc2ccccc2c(=O)c1-c1cccc(F)c1)n1nc(-c2ccc(O)cc2)c2c(N)ncnc21 (stereo not drawn)
220 to 222	NC1=NC(c2ccc(C(F)(F)F)cc2)Nc2cccc(F)c21 (stereo not drawn)
78 to 80	Cc1ccc(Oc2c(C)cc([N+](=O)[O-])c(C)c2Cl)c(C)c1
122	O=C(NC(CS)Cc1ccccc1)N1CCN(c2ccccc2)CC1 (single isomer, unassigned; (+))
53 to 55	COC(=O)CC/C(C)=C/Cc1c(OC)c(C)c2c(c1OS(=O)(=O)C(F)(F)F)C(=O)OC2

melting point [°C]	Compound
66 to 68	Cc1cc(CCCCOCCCCCCNCc2c(CO)ccc(O)c2CO)cc(C)c1N
290 to 300	CC(=O)Nc1c2oc3cc(Cl)ccc3c2nn1C
148 to 150	O=C(CC(=O)c1ccccc1C(=O)O)c1ccc(Cl)cc1
200 to 202	OC(CN1CCNC1=S)c1cccnc1 (stereo not drawn)
283	CCCN(CCC)c1ccc2c(c1)O/C(=C1/Oc3cc(N(CCC)CCC)ccc3C1=O)C2=O
56 to 58	CC(=O)CCc1ccc2ccccc2c1
88 to 90	CCOC(=O)C1CNc2cc([N+](=O)[O-])ccc2O1 (stereo not drawn)
154 to 155	COC(=O)C1=C(C)NC(C)=C(C(=O)OC)C1c1ccc(OC)c(OC)c1
154 to 156	Cc1cc(Oc2ccc([N+](=O)[O-])c(N(C)C(=O)OC(C)(C)C)c2)cc(C)c1NC(=O)OC(C)(C)C
144 to 147	CN(C)CCOc1ccc(Cl)c(C(=O)NCC23CC4CC(CC(C4)C2)C3)c1
132 to 137	CCOC(=O)c1c(C2CC2)nc(CC)n1Cc1ccc2oc(-c3ccccc3-c3nnn[nH]3)c(Br)c2c1
174 to 181	CC(C)S(=O)(=O)C1C(=O)N(Cc2ccccc2F)C(=O)c2ccccc21 (stereo not drawn)
56 to 58	CCCCCCCCCCCCCC(C)Oc1c(I)cc(I)cc1I (stereo not drawn)
44.5 to 46.5	O=C1CC=C(c2ccc(F)cc2)CC1
182 to 183	CCCCn1c(COCC)nc2c(N)nc3ccc(Br)cc3c21
180 to 182	COc1ccc2c(c1)c(Cc1cc(=O)n(-c3ccc(C(F)(F)F)cc3)[nH]1)c(C)n2C(=O)c1ccc(Cl)cc1
94 to 96	O=C1c2cc([N+](=O)[O-])ccc2CCC1Br (stereo not drawn)
268 to 288	Oc1ccc2c(-c3noc4cc(O)ccc34)cccc2c1
109	CCN(CC)CCNc1ccc(NCCN(CC)CC)c2c1C(=O)c1ccccc1C2=O
113	CC(C)(CO)NS(=O)(=O)c1cc([N+](=O)[O-])c(Cl)s1
179	OC1CSC(Oc2cc(-c3ccc(F)nc3)cc(F)c2F)C(O)C1O (stereo not drawn)
84.8 to 88.7	CCc1nc2cnc3ccccc3c2n1CCCCN
220 to 221	CNC(=O)c1cc(-c2cnn(C)c2)cc(F)c1Nc1nc(Cl)ncc1Cl
137 to 141	C1=C(c2ccc3ccccc3c2)CCC2(C1)CCNCC2

The next lines start with the compound.

Compound	melting point [°C]
CCC1C(C)=NN=C(c2ccccc2C)c2cc(OC)c(OC)cc21 (stereo not drawn)	170 to 171
CN1c2ccc(C#CCOC3CCCCO3)cc2C(O)=C(C(=O)NCc2ccc(Cl)cc2)S1(=O)=O (stereo not drawn)	148 to 149
COC(=O)Cc1coc(-c2cc(C(C)(C)C)c(O)c(C(C)(C)C)c2)n1	126 to 128
COC(=O)c1c(C)nc2c(c1N)c1c(n2Cc2ccc(OC)cc2)CCCC1	130 to 131
O=S(=O)(c1ccc(Cl)cc1)C1(c2cccnc2Cl)CCCCCC1	168 to 169
CC(C)(C)OC(=O)N1CC[C@H](O)[C@H](F)C1 (relative stereo)	48
O=C(CCCCl)Nc1cccc(Cc2n[nH]c(=O)c3ccccc23)c1	180 to 184
COCCN(C)Cc1c(-c2ccc(N)cc2)sc2c1c(=O)n(-c1ccc3c(c1)OCO3)c(=O)n2Cc1c(F)cccc1F	200 to 202
COc1cc(OC)c2c(=O)cc(-c3cccc(C)c3)oc2c1C1=CCN(C)CC1	109 to 110
CSCC(C)(C)NC(=O)c1c(I)cccc1Oc1ccc(Cl)cc1C	128 to 130
O=C(NCc1ccc(Cl)cc1)c1cnc2sc(C(=O)N3CCOCC3)cc2c1O	217 to 219
CN1C(=O)C(C(=O)Nc2ccc(Oc3ccc(C(F)(F)F)cn3)cc2)C(=O)N(C)C1=S	156 to 158
CC(NC(=O)OC(C)(C)C)C(=O)NC1CCN(c2c(F)cc3c(=O)c(C(=O)O)cn(C4CC4)c3c2F)C1 (stereo not drawn)	185 to 187
CSc1ccc(C(=O)Cc2ccc(F)cc2)cc1	139 to 140
CCOC(=O)c1c(C(C)C)csc1N/C=C(\C#N)C(=O)OC(C)(C)C	93 to 94
CCCCCCCOC(N)=O	84
NS(=O)(=O)c1ccc2c(c1)C(=O)CCC2	197 to 198
O=S(=O)(Nc1cccc(CCOCc2cccc(-c3ccc(F)cc3)n2)c1)C(F)(F)F	71 to 73
Cn1cc(Br)c(=O)c(-c2cccc(C(F)(F)F)c2)c1	167 to 169
Cc1nnc2n1-c1ccc(N)cc1C(c1ccccc1Cl)=CC2	271 to 273
COc1cc(NC(=O)CCCCCN2CCN(c3ccccn3)CC2)c2nccc(C)c2c1	120 to 121
O=C(O)c1cnc2ccn(Cc3ccccc3)n2c1=O	198 to 199
CNC(=O)Oc1ccccc1	84 to 85
CC(Br)C(=O)NC1=NN(c2cccc(C(F)(F)F)c2)CC1 (stereo not drawn)	54 to 56
COc1cc(C(C)C)ccc1C1COc2c(C)c(C)c(N)c(C)c21 (stereo not drawn)	120 to 121

Compound	melting point [°C]
CCCCCCCCCCCCCCCCCC(O)c1ccc(O)c(C(=O)O)c1 (stereo not drawn)	102
NC(=O)N(CC(=O)OCCCCCCOC(=O)CN(C(N)=O)c1ccccc1)c1ccccc1	131 to 140
COC(=O)c1ccc(C(F)(F)F)cc1Sc1ccccc1	55 to 60
C=CCc1cc2c(c(CC=C)c1O)CCC(=O)N2CCCNC(=O)CCl	152 to 154
COC(=O)CCCOc1cccc(CNC(=O)C2Cc3ccccc3N2S(=O)(=O)c2ccc(-c3cccc(C(F)(F)F)c3)cc2)c1 (stereo not drawn)	50
CCc1cc(N(C=O)c2ccccc2)cc(CC)c1N=C=S	77 to 78
CCCCCCCCCCCCCCCCCCN(C)P1OCC2(CO1)COP(N(C)CCCCCCCCCCCCCCCCCC)OC2 (stereo not drawn)	70 to 72
O=[N+]([O-])c1ccccc1Cc1n[nH]c(O)n1	210 to 212
Cc1ccc(OCc2ccccc2)c(C(CCN2CC3(C)CC3(C)C2)c2ccccc2)c1 (stereo not drawn)	93 to 95
O=C(O)c1ccc2c(c1)CCc1ccc(Br)cc1C2=O	218 to 219
COC(=O)c1ccc(C=C2CCn3c2nc2cc(N)ccc2c3=O)cc1	292 to 295
CCc1cccc(C)c1NC(=O)CCBr	149 to 150
COc1ccc(C2=NN(CC(=O)c3ccccc3)C(=O)[C@H]3CCCC[C@@H]23)cc1OC (relative stereo)	133 to 135
CC(C)(C)c1cc(CN(c2cccnc2)S(C)(=O)=O)cc(C(C)(C)C)c1O	133 to 134
CC(C)(C)c1cc2c(c(C(C)(C)C)c1)OP(OC1CC(C)(C)N(OC3CCCCC3)C(C)(C)C1)Oc1c(cc(C(C)(C)C)cc1C(C)(C)C)C2	140 to 144
Cc1cc(C(=O)O)ccc1C1=CCCc2ccccc21	173
CC(C)(C)NS(=O)(=O)c1ccc2c(NS(=O)(=O)N3CCOCC3)cccc2c1O	105 to 110
CCN=C(NC(=O)OC(C)(C)C)Nc1cc(C(C)c2ccc(-c3ccccc3)c(F)c2)no1 (stereo not drawn)	87 to 92
CCCC(=O)C1=C(n2cccn2)CC(C2CCCSC2)CC1=O (stereo not drawn)	127
N#CNC(=N)CCN1CCOC1=O	137 to 139
Cn1cncc1-c1nc(-c2cccc(Cl)c2)c2cc(C(O)(c3ccc(Cl)cc3)c3cncn3C)ccc2n1 (stereo not drawn)	160
CC(=O)NC(Cc1c[nH]c2ccccc12)C(=O)OCc1cc(C)cc(C)c1 (stereo not drawn)	145 to 146
CCCCN(CCCC)c1ccc(C=CC=Cc2ccc(C=CC3=C(C#N)C(=C(C#N)C#N)OC3(C)C)s2)c(OC)c1	185 to 187
COC(=O)CS(=O)CCCCCn1nc(-c2ccccc2)c(-c2ccccc2)c1-c1ccccc1 (stereo not drawn)	108 to 109
COC(=O)Cc1cc(OC)ccc1C(C)=O	74 to 76
